From ChEMBL document CHEMBL4342414, “Activity of 2,6,9-trisubstituted purines as potent PDGFRα kinase inhibitors with antileukaemic activity” (Eur J Med Chem, 2019)

Tests used:
[1] = test system: EOL1; assay: Cytotoxicity against FIP1L1-PDGFRA positive human EOL-1 cells assessed as growth inhibition after 72 hrs by resazurin dye-based fluorescence analysis; type: functional; details: EOL1, 72 h
[2] = test system: HCC827; assay: Cytotoxicity against human HCC827 cells assessed as growth inhibition after 72 hrs by resazurin dye-based fluorescence analysis; type: functional; details: HCC827, 72 h
[3] = test system: K562; assay: Cytotoxicity against human K562 cells assessed as growth inhibition after 72 hrs by resazurin dye-based fluorescence analysis; type: functional; details: K562, 72 h
[4] = Cytotoxicity against human CEM cells assessed as growth inhibition after 72 hrs by resazurin dye-based fluorescence analysis; type: cell-based; details: CEM (CCRF-CEM) cells
[5] = Cytotoxicity against human BJ cells assessed as growth inhibition after 72 hrs by resazurin dye-based fluorescence analysis; type: cell-based
[6] = Chemical stability of compound; type: physicochemical

Stability [6] | Compound | GI50 [1] | GI50 [2] | GI50 [3] | GI50 at 72 h [4] | GI50 at 72 h [5]
 | N[C@H]1CC[C@H](Nc2nc(Nc3ccc(N4CCN(Cc5ccccc5)CC4)cc3)c3ncn(CCCO)c3n2)CC1 | 58 nM | 2380 nM | 2670 nM | 4560 nM | 16500 nM
 | OCCCCNc1nc(Nc2cccc(CN3CCOCC3)c2)c2ncn(C3CCCC3)c2n1 | 282 nM | 8130 nM | 30400 nM | 11100 nM | 25700 nM
 | OCCCCNc1nc(Nc2ccc(Oc3nccs3)cc2)c2ncn(C3CCCC3)c2n1 | 489 nM | 6050 nM | 6080 nM | 13400 nM | 23500 nM
 | NCCCCNc1nc(Nc2cccc(CN3CCOCC3)c2)c2ncn(C3CCCC3)c2n1 | 61 nM | 5370 nM | 8400 nM | 8190 nM | 22000 nM
 | OCCCNc1nc(Nc2ccc(Oc3nccs3)cc2)c2ncn(C3CCCC3)c2n1 | 442 nM | 6490 nM | 11300 nM | 23000 nM | 34100 nM
 | OCCCCNc1nc(Nc2ccc(CN3CCOCC3)cc2)c2ncn(CCCO)c2n1 | 294 nM | 10600 nM | 4740 nM | 5170 nM | 20800 nM
Unstable | N[C@H]1CC[C@H](Nc2nc(Nc3ccc(-n4cnnc4)cc3)c3ncn(C4CCCC4)c3n2)CC1 | 5 nM | 865 nM | 1120 nM | 671 nM | 12800 nM
 | NCCCCNc1nc(Nc2ccc(CN3CCOCC3)cc2)c2ncn(C3CCCC3)c2n1 | 49 nM | 2040 nM | 2790 nM | 3040 nM | 9540 nM
 | c1csc(Oc2ccc(Nc3nc(N4CCOCC4)nc4c3ncn4C3CCCC3)cc2)n1 | 347 nM | 15400 nM | > 40000 nM | > 40000 nM | > 40000 nM
 | N[C@H]1CC[C@H](Nc2nc(Nc3ccc(Oc4nccs4)cc3)c3ncn(C4CCCC4)c3n2)CC1 | 8 nM | 692 nM | 676 nM | 650 nM | 6850 nM
 | N[C@H]1CC[C@H](Nc2nc(Nc3cccc(CN4CCOCC4)c3)c3ncn(C4CCCC4)c3n2)CC1 | 12 nM | 1180 nM | 1280 nM | 1360 nM | 14700 nM
 | NCCCCNc1nc(Nc2ccc(N3CCN(Cc4ccccc4)CC3)cc2)c2ncn(CCCO)c2n1 | 158 nM | 6700 nM | 2570 nM | 7570 nM | 28500 nM
 | NCCCCNc1nc(Nc2ccc(N3CCN(Cc4ccccc4)CC3)cc2)c2ncn(C3CCC(O)C3)c2n1 (stereo unspecified) | 46 nM | 2290 nM | 1630 nM | 3670 nM | 13200 nM
 | N[C@H]1CC[C@H](Nc2nc(Nc3ccc(N4CCN(Cc5ccccc5)CC4)cc3)c3ncn(C4CCCC4)c3n2)CC1 | 22 nM | 918 nM | 970 nM | 582 nM | 10000 nM
 | N[C@H]1CC[C@H](Nc2nc(Nc3ccc(Oc4ccc(Br)cn4)cc3)c3ncn(C4CCCC4)c3n2)CC1 | 122 nM | 3730 nM | 6080 nM | 6160 nM | > 40000 nM
 | OCCCCNc1nc(Nc2ccc(N3CCN(Cc4ccccc4)CC3)cc2)c2ncn(C3CCC(O)C3)c2n1 (stereo unspecified) | 223 nM | 3960 nM | 3720 nM | 9080 nM | 23800 nM
 | N[C@H]1CC[C@H](Nc2nc(Nc3ccc(-c4cccs4)nc3)c3ncn(C4CCCC4)c3n2)CC1 | 21 nM | 652 nM | 574 nM | 477 nM | 2940 nM
 | N[C@H]1CC[C@H](Nc2nc(Nc3ccc(-n4cncn4)cc3)c3ncn(C4CCCC4)c3n2)CC1 | 8 nM | 1420 nM | 1560 nM | 871 nM | 14700 nM
 | CC(C)(C)c1cc(NC(=O)Nc2ccc(-c3cn4c(n3)sc3cc(OCCN5CCOCC5)ccc34)cc2)no1 [QUIZARTINIB] | < 0.5 nM | > 40000 nM | > 40000 nM | > 40000 nM | > 40000 nM
 | COc1ccc(-c2ccc(Nc3nc(N[C@H]4CC[C@H](N)CC4)nc4c3ncn4C3CCCC3)cn2)cc1 | 25 nM | 581 nM | 698 nM | 544 nM | 7230 nM
 | N[C@H]1CC[C@H](Nc2nc(Nc3ccc(N4CCN(Cc5ccccc5)CC4)cc3)c3ncn(C4CCC(O)C4)c3n2)CC1 (stereo partly specified) | 11 nM | 840 nM | 652 nM | 540 nM | 16900 nM
